Tests used:
Type in all cases: biochemical
[1] = target: T1, lipoxygenase type I-B from soybean (Glycine max, UniProt P08170); assay: UV absorbance at […] nm, linoleate oxidation
T1 construct: gene LOX1.1; commercial native soybean enzyme (Sigma type I-B), full length
T1 sequence (P08170 1-839): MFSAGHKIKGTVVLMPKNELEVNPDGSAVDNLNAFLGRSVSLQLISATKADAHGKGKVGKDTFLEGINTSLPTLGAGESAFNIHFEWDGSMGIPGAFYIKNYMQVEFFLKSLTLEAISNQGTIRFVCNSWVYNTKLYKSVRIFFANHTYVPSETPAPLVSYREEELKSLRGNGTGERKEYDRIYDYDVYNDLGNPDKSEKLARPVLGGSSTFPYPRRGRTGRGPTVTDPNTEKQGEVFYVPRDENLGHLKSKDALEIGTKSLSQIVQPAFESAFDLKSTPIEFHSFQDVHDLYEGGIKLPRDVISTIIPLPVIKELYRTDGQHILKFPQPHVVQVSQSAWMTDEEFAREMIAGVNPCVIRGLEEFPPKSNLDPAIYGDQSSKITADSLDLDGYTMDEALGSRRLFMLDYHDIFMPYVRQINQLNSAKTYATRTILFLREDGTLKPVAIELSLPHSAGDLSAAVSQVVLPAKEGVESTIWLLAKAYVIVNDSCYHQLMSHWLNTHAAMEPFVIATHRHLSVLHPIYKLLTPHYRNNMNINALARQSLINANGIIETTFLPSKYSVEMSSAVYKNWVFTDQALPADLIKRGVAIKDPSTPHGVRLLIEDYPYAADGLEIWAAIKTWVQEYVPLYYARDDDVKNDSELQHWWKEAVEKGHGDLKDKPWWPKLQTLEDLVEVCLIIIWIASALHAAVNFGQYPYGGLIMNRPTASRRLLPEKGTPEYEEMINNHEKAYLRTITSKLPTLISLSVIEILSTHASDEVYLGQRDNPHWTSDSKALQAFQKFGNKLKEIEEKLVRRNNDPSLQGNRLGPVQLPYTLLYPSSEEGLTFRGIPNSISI

human recombinant COX-2 = target: T2, human recombinant COX-2 (Homo sapiens, UniProt P35354); assay: Cayman COX inhibitor screening kit, prostanoid enzyme immunoassay
T2 construct: gene PTGS2; homodimer; docking used mouse COX-2 (not this entry)
T2 sequence (P35354 18-604): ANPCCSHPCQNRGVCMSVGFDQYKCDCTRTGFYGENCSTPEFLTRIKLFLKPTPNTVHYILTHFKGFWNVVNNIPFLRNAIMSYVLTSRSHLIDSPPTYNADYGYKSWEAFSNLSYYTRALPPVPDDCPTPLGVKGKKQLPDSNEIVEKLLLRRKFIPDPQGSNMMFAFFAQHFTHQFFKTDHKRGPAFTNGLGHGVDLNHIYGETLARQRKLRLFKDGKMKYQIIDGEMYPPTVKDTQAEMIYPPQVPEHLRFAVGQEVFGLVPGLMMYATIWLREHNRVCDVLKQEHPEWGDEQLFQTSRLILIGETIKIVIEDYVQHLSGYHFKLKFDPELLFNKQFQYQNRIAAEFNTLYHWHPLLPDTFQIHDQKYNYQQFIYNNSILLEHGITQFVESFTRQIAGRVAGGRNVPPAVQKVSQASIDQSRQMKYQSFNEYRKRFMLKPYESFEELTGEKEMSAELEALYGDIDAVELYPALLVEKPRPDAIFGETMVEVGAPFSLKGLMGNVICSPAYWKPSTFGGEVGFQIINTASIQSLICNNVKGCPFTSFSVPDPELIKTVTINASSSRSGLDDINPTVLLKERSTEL
Text: Cayman COX inhibitor screening kit, prostanoid enzyme immunoassay on human recombinant COX-2

ovine COX-1 = target: T3, ovine COX-1 (Ovis aries, UniProt P05979); assay: as above
T3 construct: gene PTGS1; homodimer
T3 sequence (P05979 25-600): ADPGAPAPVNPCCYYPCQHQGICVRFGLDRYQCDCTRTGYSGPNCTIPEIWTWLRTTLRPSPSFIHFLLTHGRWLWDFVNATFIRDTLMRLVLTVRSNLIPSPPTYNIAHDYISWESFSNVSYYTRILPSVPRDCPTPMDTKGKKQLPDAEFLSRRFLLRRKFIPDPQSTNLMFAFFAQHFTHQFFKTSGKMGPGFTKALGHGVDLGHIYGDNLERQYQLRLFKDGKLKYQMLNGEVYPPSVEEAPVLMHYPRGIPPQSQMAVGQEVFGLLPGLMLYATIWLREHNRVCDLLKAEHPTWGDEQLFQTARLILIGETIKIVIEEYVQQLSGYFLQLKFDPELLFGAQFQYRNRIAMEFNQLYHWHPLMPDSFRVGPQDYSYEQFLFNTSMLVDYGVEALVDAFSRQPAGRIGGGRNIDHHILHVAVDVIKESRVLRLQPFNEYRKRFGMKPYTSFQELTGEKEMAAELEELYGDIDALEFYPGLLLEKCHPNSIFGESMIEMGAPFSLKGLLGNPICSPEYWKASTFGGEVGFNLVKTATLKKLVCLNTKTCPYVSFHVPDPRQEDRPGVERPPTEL
Text: Cayman COX inhibitor screening kit, prostanoid enzyme immunoassay on ovine COX-1

| Structure (SMILES) | IC50 [1] | inhibition at 0.05 µM (human recombinant COX-2) | inhibition at 0.05 µM (ovine COX-1) |
| --- | --- | --- | --- |
| CC(C)Cc1ccc(C(C)C(=O)N2CCC[C@H]2C(=O)OCCO[N+](=O)[O-])cc1 (stereo partly shown) [compound 6, 2-(Nitrooxy)ethyl-1-(2-(4-isobutylphenyl)propanoyl)pyrrolidine-2-carboxylate] | 264 µM |  |  |
| COc1ccc2cc([C@H](C)C(=O)N3CCC[C@H]3C(=O)OCCO[N+](=O)[O-])ccc2c1 [compound 8, 2-(Nitrooxy)ethyl-1-(2-(6-methoxynaphthalen-2-yl)propanoyl)pyrrolidine-2-carboxylate] | 184 µM |  |  |
| COc1ccc2cc([C@H](C)C(=O)NCCC(=O)OCCO)ccc2c1 [compound 9, 2-Hydroxyethyl 3-(2-(6-methoxynaphthalen-2-yl)propanamido)propanoate] |  |  | 73% |

Further compounds by falling IC50 [1], results first:

| IC50 [1] | inhibition at 0.05 µM (human recombinant COX-2) | inhibition at 0.05 µM (ovine COX-1) | Structure (SMILES) |
| --- | --- | --- | --- |
| 78 µM | 95% | 67% | CC(C)Cc1ccc(C(C)C(=O)NCCC(=O)OCCO[N+](=O)[O-])cc1 (racemic) [compound 5, 2-(Nitrooxy)ethyl-3-(2-(4-isobutylphenyl)propanamido)propanoate] |
| 51 µM |  |  | COc1ccc2cc([C@H](C)C(=O)NCCC(=O)OCCO[N+](=O)[O-])ccc2c1 [compound 7, 2-(Nitrooxy)ethyl-3-(2-(6-methoxynaphthalen-2-yl)propanamido)propanoate] |

— PMC12472888 (Molecules, 2025)
